In ChEMBL document CHEMBL1201862, “PubChem BioAssay data set” (2004):
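Five compound concentrations were applied to cells in 96-well plates for 48 hours; endpoints were derived by simple linear interpolation of the resulting dose-response curve. Abbreviation: GI50, concentration required for 50% inhibition of growth.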 Active and inactive are the calls of the source. Cut-off read from the data, not from the text of the source: active = GI50 up to about 1.1 µM and inactive = higher.

What was measured:
Test in all cases: growth of human tumour cells (NCI), 48 h
[1] = tested on: HOP-92
[2] = tested on: SF-539
[3] = tested on: TK-10
[4] = tested on: HOP-62
[5] = tested on: ACHN
[6] = tested on: A498
[7] = tested on: RXF 393
[8] = tested on: CCRF-CEM
[9] = tested on: OVCAR-4
[10] = tested on: PC-3
[11] = tested on: Hs-578T
[12] = tested on: LOX IMVI
[13] = tested on: A549
[14] = tested on: T47D
[15] = tested on: MCF7
[16] = tested on: UO-31
[17] = tested on: DU-145
[18] = tested on: U-251
[19] = tested on: SK-MEL-2

Measured: GI50

N=C(N)N/N=C/c1cnn(C(=N)N)c1
inactive: [1] > 100 µM | [2] > 100 µM | [3] > 100 µM | [4] > 100 µM | [5] > 100 µM | [6] > 100 µM | [7] > 100 µM | [8] > 100 µM | [9] > 100 µM | [10] 31.4 µM | [11] > 100 µM | [12] > 100 µM | [13] > 100 µM | [14] > 100 µM | [15] > 100 µM | [16] > 100 µM | [17] > 100 µM | [18] 91 µM

O=c1cc(-c2ccccc2)oc2c(-c3cc(Cl)cc4c(=O)cc(-c5ccccc5)oc34)cc(Cl)cc12
inactive: [2] 17.8 µM | [3] 45 µM | [4] 31 µM | [19] 35.7 µM | [5] 16.2 µM | [6] 16.1 µM | [7] 26.2 µM | [8] 5.48 µM | [9] 41.9 µM | [10] 7.87 µM | [11] 15.3 µM | [12] 11.3 µM | [13] 29.1 µM | [14] 16.4 µM | [15] 24.5 µM | [16] 16.8 µM | [17] 36.3 µM | [18] 19 µM

COc1ccc2oc(=O)c(-c3csc(-c4ccccc4)n3)cc2c1
inactive: [1] 24.3 µM | [2] 16.9 µM | [3] 22.9 µM | [4] 17.4 µM | [19] > 100 µM | [5] 32 µM | [7] 24.9 µM | [8] > 100 µM | [9] 31 µM | [10] 89.5 µM | [11] 37.8 µM | [12] 54.8 µM | [13] 64.7 µM | [14] > 100 µM | [15] 94.6 µM | [16] 24 µM | [17] > 100 µM | [18] 21.9 µM

O=C(O)C(Cc1cc(I)c(O)c(I)c1)C1CCCCC1 (stereo not given)
inactive: [1] 33.5 µM | [3] 24 µM | [4] 24.5 µM | [5] 30.3 µM | [6] 21.3 µM | [7] 34.2 µM | [8] 51.1 µM | [9] 59.6 µM | [10] 18.3 µM | [11] 27.9 µM | [12] 34 µM | [13] 31.9 µM | [14] 29.9 µM | [16] 45.7 µM | [17] 33 µM | [18] 22.3 µM

COC12C=CC(C=C1C#N)CC2.COC12C=CC(CC1)CC2=O (stereo not given)
inactive: [1] > 100 µM | [2] > 100 µM | [3] > 100 µM | [4] > 100 µM | [19] > 100 µM | [5] > 100 µM | [6] > 100 µM | [7] > 100 µM | [8] > 100 µM | [9] > 100 µM | [10] > 100 µM | [11] > 100 µM | [13] > 100 µM | [14] > 100 µM | [15] > 100 µM | [16] > 100 µM | [17] > 100 µM | [18] > 100 µM

COC(=O)C(Cc1c(-c2[nH]c3ccccc3c2CC(NC(C)=O)C(=O)OC)[nH]c2ccccc12)NC(C)=O (stereo not given)
inactive: [1] > 100 µM | [2] > 100 µM | [3] > 100 µM | [4] > 100 µM | [19] > 100 µM | [5] > 100 µM | [6] > 100 µM | [7] > 100 µM | [8] > 100 µM | [10] > 100 µM | [11] > 100 µM | [12] > 100 µM | [13] > 100 µM | [14] > 100 µM | [16] > 100 µM | [17] > 100 µM | [18] > 100 µM

Cc1ncc(COP(=O)(O)O)c(/C=C2\SC(=S)NC2=O)c1O
inactive: [1] > 74.5 µM | [2] > 100 µM | [3] > 100 µM | [4] > 100 µM | [19] > 100 µM | [5] > 100 µM | [6] > 100 µM | [7] > 100 µM | [9] > 100 µM | [10] > 100 µM | [12] > 100 µM | [13] > 100 µM | [14] > 100 µM | [15] > 100 µM | [16] > 100 µM | [17] > 100 µM | [18] > 100 µM

COc1ccc(/C=C/C(=O)/C=C/c2ccc(OC)cc2OC)c(OC)c1
inactive: [1] 18.6 µM | [2] 15.8 µM | [3] 14.5 µM | [4] 44.5 µM | [19] 1.33 µM | [5] 6.61 µM | [7] 3.24 µM | [8] 2.92 µM | [9] 12.3 µM | [10] 12.2 µM | [11] 26.3 µM | [12] 3.63 µM | [13] 14.4 µM | [14] 4.47 µM | [15] 2.4 µM | [16] 13.6 µM | [17] 12.4 µM | [18] 4.67 µM
